According to patent US20140328944A1, “USE OF CTBP1 siRNA FOR THE TREATMENT OF GASTRIC CANCER” (CTI, priority 2013, published 2014):

Test system: AGS and MKN45 gastric cancer cell lines
Test: MTS-based cell proliferation assay after siRNA transfection (drug dose-response)
Conditions: CTBP1 siRNA (5 nM) vs untreated cells (WT) and control siRNA, 72 h drug incubation
Description: MKN45 cell lines were grown in RPM1-1640 media and AGS cell lines in F12K, both media were supplemented with 10% characterized fetal bovine serum (FBS) (Hyclone, Logan, Utah, USA) and 100 U /ml of Penicillin /Streptomycin (Gibco BRL, Gaithersburgh, Md., USA). Cells were grown in an incubator (NUAIRE, Plymouth, USA) at 37° C. with an atmosphere of 5% CO2 and 90% humidity. The drugs 5-FU, Cisplatin and Epirubicin were donated for this research by the Kampar Oncology Laboratory (Santiago, Chile).
In 6-well plates, 200,000 cells were cultured in their respective culture medium with 10% FBS for 24 h at 37° C. and 5% CO2 pressure. Then cells were washed once with PBS IX and 900 ul of their respective medium without serum and without antibiotic were added.
The cells were transfected with a pool of 4 siRNA Flexitube siRNA CTBP1 and siRNA control AllStars Negative Control (QIAGEN, Valencia, Calif., USA) at a concentration of 5 nM with 2.5 ul of Lipofectamine 2000 (Invitrogen, Carlsbad, Calif., USA). […]
24 hours after transfection, cells were seeded in 96 well plates at a concentration of 10,000 cells per well. […] The IC50 values were calculated using GraphPad 5.0 software. The results of the response to the drugs were expressed as mean±SD. […]

Compound | increase in sensitivity to the drug on silencing of CTBP1 with siRNA
O=c1[nH]cc(F)c(=O)[nH]1 [5-FU, 5-Fluorouracil] | approximately 6 times
COc1cccc2c1C(=O)c1c(O)c3c(c(O)c1C2=O)C[C@@](O)(C(=O)CO)C[C@@H]3O[C@H]1C[C@H](N)[C@@H](O)[C@H](C)O1 [Epirubicin] | 12-17 times
